# Several values for one entry are separate records, joined by “and”; a condition that tells them apart may be missing. Equal entries are not always repeated.
# Columns and labels:
# A2780 = assay: Cell proliferation combination study (CellTiter-Glo); format: cell-based
# Procedure: (§1) The proliferation assay uses the CellTiter-Glo Luminescent Cell Viability Assay System (commercially available from Promega) to determine the cell number of viable cells in culture based on quantitation of the ATP present, which signals the presence of metabolically active cells.
# (§2) The cells are plated in 96-well plate at 2000 cells/well in volume of 50 μL medium (DMEM, 10% FBS, 25 mM HEPES, 1.0 mM Sodium Pyruvate, and 0.1 mM Non Essential Amino Acids) except column 1 with medium only as blank control. The plates are incubated overnight at 37° C. and 5% CO2. On the next day, compound stocks are prepared at 40 mM in DMSO (500×) and serially diluted in DMSO in a 96-well round bottom polypropylene plate. Compounds are assayed at 10 concentrations in duplicate, 4 compounds per plate.
# (§3) 4 μL of the serial DMSO dilutions are transferred to a 96 deep-well plate and 1 mL complete culture medium is added to create 2× stock for dosing. 50 μL of each 2× dosing stock is gently transferred to the corresponding well of the cell plate resulting in a 0.2% DMSO concentration and a 100 μL final volume. […] medium are added to the Control columns (Column 12) and background columns (Column 1). Cells are incubated with compound for at 37° C., 5% CO2 for 72 hr.
# (§4) After incubation, 100 μL of the pre-prepared CellTiter-Glo reagent (Promega, Cat: G7571) is added in each well and then the cells are homogenized by mixing on an orbital shaker for 2 min and incubated at RT for 10 minutes to allow luminescent signal stabilization Luminescent raw data is recorded on Wallac Victor V plate reader and the IC50 value for each compound is generated using percent inhibition data. A four-parameter logistic curve is fit to each dose response.
# (§5) Combination studies use the fixed ratio method, where the other therapeutic agent and the compound of the present invention are present in fixed ratios of concentrations corresponding to the IC50 equivalents of single agents. The read out for the combination studies is cell proliferation in respective cell lines using Cell Titer Glo reagents. Controls are processed similarly but without the compounds. Analysis of the data is done according to the method described in Zhao et. Al. (Clinical Cancer Research 10, 7994-8004, Dec. 1, 2004) utilizing an internally developed web based tool. A combination index is calculated for each cell proliferation inhibition activity level according to the equation below. Combination Index at activity level x=[Concentration of other therapeutic agent in the combination at the activity level x/ICx of the other therapeutic agent]+[Concentration of the compound of the present invention in the combination at the activity level x/ICx of the compound of the present invention]
# AsPC1 = assay: as above; format: cell-based
# Procedure: as §1, §2, §3, §4, §5
# BxPC3 = assay: as above; format: cell-based
# Procedure: as §1, §2, §3, §4, §5
# Calu6 = assay: as above; format: cell-based
# Procedure: as §1, §2, §3, §4, §5
# H1155 = assay: as above; format: cell-based; settings: with Gemcitabine
# Procedure: as §1, §2, §3, §4, §5
# H1650 = assay: as above; format: cell-based
# Procedure: as §1, §2, §3, §4, §5
# HCC827 = assay: as above; format: cell-based
# Procedure: as §1, §2, §3, §4, §5
# MCF-7 = assay: as above; format: cell-based
# Procedure: as §1, §2, §3, §4, §5
# MDA-MB-231 = assay: as above; format: cell-based
# Procedure: as §1, §2, §3, §4, §5
# NCI-H1975 = assay: as above; format: cell-based
# Procedure: as §1, §2, §3, §4, §5
# NCIH460 = assay: as above; format: cell-based
# Procedure: as §1, §2, §3, §4, §5
# RKO = assay: as above; format: cell-based; settings: with Irinotecan
# Procedure: as §1, §2, §3, §4, §5
# SK0V3 = assay: as above; format: cell-based
# Procedure: as §1, §2, §3, §4, §5
# AKT = AKT In Vivo Target Inhibition (IV), U87MG tumors in athymic rats; settings: Rattus norvegicus, U-87 MG, IV dose 20 mpk, 4 hr post IV dose, n = 2, read-out: p(S9)GSK 3β - % inhibition
# Procedure: Exponentially growing U87MG cells derived from a human glioblastoma are implanted subcutaneously in the rear flank of athymic rats. When the tumors reach the size of 200-250 mm^3, compounds are administered to the animals by a single IV injection in a dose-response study or in a time-course study. At the end of each treatment, animals are asphyxiated with CO2. Tumors are harvested by surgical excision, quickly frozen in liquid nitrogen and stored at −80° C. until analysis. Sera are prepared from blood harvested from the heart by cardiac puncture and stored at −80° C. until analysis.
# The AKT inhibitor is extracted from serum with acetonitrite/methanol and analyzed alongside an internal standard by LC/MS/MS. […]
# Tumors are homogenized in 2 volumes of a lysis buffer containing 25 mM Tris (pH 7.5), Roche complete protease inhibitors, and 1 mM vanadate with Powergen 125 homogenizer, then sequentially passed through an 18 gauge needle and a 23 gauge needle. […] Protein concentrations in the cytoplasmic extracts are determined with a BCA kit. Phospho-GSK3b (pGSK3b) in the soluble extracts is analyzed with the ELISA Kit. For each study, percent inhibitions are calculated relative to the vehicle control group and ANOVA analysis is performed using the JMP software package for the determination of statistical significance.
structure (smiles),measurement,setting,value
"C[C@@H]1CC(=O)Nc2ncnc(N3CCC(c4nc(C(F)(F)F)cn4CCN4CCCC4)CC3)c21 (single isomer, unassigned) [Example 77]",Combination Index at 50% Inhibition,A2780; with Cisplatin,0.93
same,Combination Index at 50% Inhibition,A2780; with Doxorubicin,0.85
same,Combination Index at 50% Inhibition,AsPC1; with Erlotinib,0.23
same,Combination Index at 50% Inhibition,AsPC1; with Gemcitabine,0.23
same,Combination Index at 50% Inhibition,AsPC1; with Rapamycin,0.22
same,Combination Index at 50% Inhibition,BxPC3; with Erlotinib,0.36
same,Combination Index at 50% Inhibition,BxPC3; with Gemcitabine,1.13
same,Combination Index at 50% Inhibition,BxPC3; with Rapamycin,0.15
same,Combination Index at 50% Inhibition,Calu6; with Cisplatin,0.86
same,Combination Index at 50% Inhibition,Calu6; with Docetaxel,0.65
same,Combination Index at 50% Inhibition,Calu6; with Erlotinib,0.20
same,Combination Index at 50% Inhibition,Calu6; with Gemcitabine,1.16
same,Combination Index at 50% Inhibition,Calu6; with Pemetrexed,0.93
same,Combination Index at 50% Inhibition,Calu6; with Tasisulam,1.16
same,Combination Index at 50% Inhibition,H1155,0.43
same,Combination Index at 50% Inhibition,H1650; with Erlotinib,0.04
same,Combination Index at 50% Inhibition,H1650; with Gemcitabine,0.43
same,Combination Index at 50% Inhibition,H1650; with Rapamycin,0.07
same,Combination Index at 50% Inhibition,"HCC827; with Erlotinib, HCC827",1.87
same,Combination Index at 50% Inhibition,"HCC827; with Gemcitabine, HCC827",0.17
same,Combination Index at 50% Inhibition,"HCC827; with Rapamycin, HCC-827",1.13
same,Combination Index at 50% Inhibition,MCF-7; with Erlotinib,0.58
same,Combination Index at 50% Inhibition,MCF-7; with Gemcitabine,0.10
same,Combination Index at 50% Inhibition,MCF-7; with Paclitaxel,0.60
same,Combination Index at 50% Inhibition,MCF-7; with Rapamycin,0.46
same,Combination Index at 50% Inhibition,MCF-7; with Tamoxifen,0.74
same,Combination Index at 50% Inhibition,MDA-MB-231; with Erlotinib,0.05
same,Combination Index at 50% Inhibition,MDA-MB-231; with Gemcitabine,0.39
same,Combination Index at 50% Inhibition,MDA-MB-231; with Paclitaxel,1.13
same,Combination Index at 50% Inhibition,MDA-MB-231; with Rapamycin,0.01
same,Combination Index at 50% Inhibition,NCI-H1975; with Cisplatin,0.77
same,Combination Index at 50% Inhibition,NCI-H1975; with Docetaxel,1.13
same,Combination Index at 50% Inhibition,NCI-H1975; with Erlotinib,0.47
same,Combination Index at 50% Inhibition,NCI-H1975; with Gemcitabine,0.55
same,Combination Index at 50% Inhibition,NCI-H1975; with Pemetrexed,1.73
same,Combination Index at 50% Inhibition,NCIH460; with Cisplatin,0.76 and 0.91
same,Combination Index at 50% Inhibition,NCIH460; with Docetaxel,0.82
same,Combination Index at 50% Inhibition,NCIH460; with Erlotinib,0.64
same,Combination Index at 50% Inhibition,NCIH460; with Gemcitabine,0.88
same,Combination Index at 50% Inhibition,RKO,0.83
same,Combination Index at 50% Inhibition,SK0V3; with Cisplatin,1.00
same,Combination Index at 50% Inhibition,SK0V3; with Doxorubicin,1.12
"C[C@@H]1CC(=O)Nc2ncnc(N3CCC(c4nc(C(F)(F)F)cn4CCN4CCCC4)CC3)c21 [Example 78, (R)-5-Methyl-4-(4-(1-(2-(pyrrolidin-1-yl)ethyl)-4-(trifluoromethyl)-1H-imidazol-2-yl)piperidin-1-yl)-5,6-dihydropyrido[2,3-d]pyrimidin-7(8H)-one]",inhibition at 20 mg/kg,AKT,48%

# — patent US8436002B2, “AKT inhibitors” (Eli Lilly and Company, priority 2009, dated 2013)
